Reference: US10888092B2, “Ether amines for enhanced sporicidal performance” (Ecolab USA Inc., priority 2016, dated 2021)
Marks after values point to notes of the source that are not given here.

Legend:
[1] = system: spores; assay: Peracid comparison, ASTM test on fabric swatches (Example 7); format: cell-based; conditions: TABLE 9; peracid 200 ppm alone; 10 min at 50° C.
Description: (§1) Various ether amines were tested for their efficiency in eradicating bacterial spores from fabric swatches. The fabric swatches were treated according to ASTM protocol for evaluating laundry sanitizers and disinfectants (ASTM E2274-09). The ASTM protocol provides more realistic conditions for laundering textiles, where the tested textiles are imbedded within a bundle of fabrics to mimic the ability of the composition to penetrate the fabric with less exposure to the wash solution.
The use of different peracids was tested. Fabric swatches were treated using the ASTM test described in Example 5. Part I was prepared with 100 ppm ether amine (DA-1618). Part II was prepared with 200 ppm of peroxyacetic acid (“POAA”) or peroxyoctanoic acid (“POOA”). When both Part I and Part II were used, the chemicals were added simultaneously. The exposure time was 10 min at 50° C.

[2] = system: bacterial spores; assay: Fabric swatches (ASTM E2274-09 protocol), simultaneous treatment (Example 5); format: cell-based; conditions: TABLE 7, exposure 10 minutes
Description: as §1
Three different ether amine solutions were tested: DA-1214 (octyl/decyloxypropyl-1,3-diaminopropane), DA-1618 (dodecylketradecyloxypropyl-1,3-diaminopropane), and PA-14 (isodecyloxypropyl amine). Part I and Part II were both added together at the start of the experiment for a combined exposure time of 10 minutes. The solutions were made into deionized water as described in Example 1, with the pH adjusted to 9.0 by glycolic acid. However, PA-14 was already neutralized to pH 7 with sodium acetate. The log reduction of spores was measured in the wash solution and on the fabric swatch. The reduction of spores was compared to number of spores in the baseline treatment (water only).

[3] = system: C. Diff. AATCC 43598; assay: Glass surface, room temperature (Example 3); format: cell-based, Clostridium difficile; conditions: TABLE 5, room temperature (approximately 23° C.), ether amine 0 ppm 10 min, peracid 1000 ppm 5 min
Description: (§2) Cotton fabric swatches (5 mm×5 mm) were inoculated with C. Diff. AATCC 43598 at 35° C. for 48 hours. After inoculation, the swatches were treated with a first solution comprising part I of the composition at 50° C. for a first exposure time; removed from the first solution with sterile forceps and immediately transferred into a second solution comprising part II of the composition for a second exposure time. In comparative treatments, the solutions included only water. After treatment, the number of surviving spores was evaluated, and the log reduction of spores was compared to the comparative treatment (water only).
(§3) The treatment described above for Example 1 was applied to glass squares (5 mm×5 mm) in a first part of the experiment, where the first exposure time was 10 minutes (part I) and the second exposure time was 5 minutes (part II). In a second part of the experiment, the ether amine and peracid were mixed together prior to treatment, and the exposure time was 15 minutes. Results of the first part of the experiment are shown in TABLE 4A, and of the second part of the experiment in TABLE 4B.
The treatment described in Example 2 was repeated at room temperature (“RT,” approximately 23° C.). Part I was prepared with ether amine DA-1214 and Part II with peroxyacetic acid. The exposure times were 10 min for Part I and 5 min for Part II.

[4] = system: C. Diff. AATCC 43598; assay: Glass surface, consecutive treatment (Example 2); format: cell-based, Clostridium difficile; conditions: TABLE 4A, glass squares, ether amine 0 ppm 10 min
Description: as §2, §3

[5] = system: C. Diff. AATCC 43598; assay: Fabric swatches, consecutive treatment, spore log reduction (Example 1); format: cell-based, Clostridium difficile; conditions: ether amine 0 ppm 10 min, 50° C.
Description: Aqueous solutions of ether amine (Part I) and peracid (Part II) were prepared. Ether amine (octyl/decyloxypropyl-1,3-diaminopropane) solution (Part I) was prepared in deionized water and the pH was adjust to 9.0 using glycolic acid. TOMAMINE DA1214 was used as the ether amine. TOMAMINE DA1214 contains about 50-60% by weight of 1,3-Propanediamine, N-[3-(octylocy)propyl] and about 35-40% by weight of 1,3-Propanediamine, N-[3-(decylocy)propyl], and is available from Air Products and Chemicals, Inc., in Allentown, Pa. Peracid (peracetic acid) solution (Part II) was prepared from TSUNAMI° 100 (15 peracetic acid), available from Ecolab Inc., in St Paul, Minn.
as §2
In Example 1, the first exposure time was 10 minutes (Part I) and the second exposure time was 5 minutes (Part II).

[6] = system: C. Diff. AATCC 43598; assay: Fabric swatches, consecutive vs. simultaneous treatment (Example 4); format: cell-based, Clostridium difficile; conditions: TABLE 6, ether amine 0 ppm 10 min, peracid 300 ppm 5 minutes
Description: as §2
Consecutive and simultaneous treatment with low concentration (100 ppm) of ether amine and peracetic acid was tested on fabric squares. The fabric squares were treated as in Example 1 with treatment times of 10 min (part I) and 5 minutes (part II), except with the simultaneous treatment, where ether amine and peracid were mixed prior to treatment and the exposure time was 5 minutes.

[7] = system: spores; assay: Fabric swatches (ASTM E2274), simultaneous treatment, hard water (Example 6); format: cell-based; conditions: TABLE 8; 500 ppm synthetic hard water, pH 10.5 prior to peracid addition; ether amine 0 ppm, peracid 200 ppm; 10 minutes
Description: as §1
Treatment of fabric swatches was tested in pH-adjusted hard water. The wash solution contained 500 ppm synthetic hard water, and the pH was adjusted to 10.5 with NaOH prior to peracid addition. After the addition of the peracid, pH of the wash solution was between 7-8. DA-1214 was used as the ether amine and peracetic acid as the peracid.
The log reduction of spores was measured in the wash solution and on the fabric swatch. The reduction of spores was compared to number of spores in the baseline treatment (water only). The combined treatment time was 10 minutes.

[8] = ether amine 100 ppm, peracid 0 ppm
[9] = ether amine 0 ppm, peracid 200 ppm
[10] = TABLE 3A, then peracid 300 ppm 5 min
[11] = TABLE 3A, then peracid 500 ppm 5 min
[12] = TABLE 3C, then peracid 300 ppm 5 min

With `CCCCCCCC(=O)OO` [POOA, peroxyoctanoic acid] as the molecule, how does the Carrier log reduction [1] read?
The Carrier log reduction was 5.35.

And the “Wash Solution Log Reduction” value [1]?
Its value is 6.00*.

What does the source list for `CC(C)CCCCCCCOCCCN` [PA-14, isodecyloxypropyl amine]?
Fabric Swatch Log Reduction [2, 8]: 0.07; Wash Solution Log Reduction [2, 8]: 0.17

With `CC(=O)OO` [peracid, peracetic acid] as the molecule, how does the “Average Log” value [3] read?
Its value is over 5.48.

And the “Average Survivors” value [3]?
The value was >300 × 10^3.

And the “Log Reduction” value [3]?
Its value is under 1.32.

What about the “Fabric Swatch Log Reduction” value [2, 9] of the same molecule?
The value was 2.65.

And the “Wash Solution Log Reduction” value [2, 9]?
Its value is 5.33.

What about the “Average Log” value ([4]; then peracid 300 ppm 5 min) of the same molecule?
The value was 5.30.

And the “Average Survivors” value ([4]; then peracid 300 ppm 5 min)?
The value was 2.0 × 10^5.

What about the “Log Reduction” value ([4]; then peracid 300 ppm 5 min) of the same molecule?
Its value is 1.36.

And the “Average Log” value ([4]; then peracid 500 ppm 5 min)?
Its value is 3.38.

What about the “Average Survivors” value ([4]; then peracid 500 ppm 5 min) of the same molecule?
Its value is 2.4 × 10^3.

What about the “Log Reduction” value ([4]; then peracid 500 ppm 5 min) of the same molecule?
The value was 3.28.

And the “Average Log” value [5, 10]?
The value was 5.36.

And the “Average Survivors” value [5, 10]?
Its value is 2.3 × 10^5.

What about the “Log Reduction” value [5, 10] of the same molecule?
The value was 1.02.

And the “Average Log” value [5, 11]?
Its value is 3.23.

What about the “Average Survivors” value [5, 11] of the same molecule?
Its value is 1.7 × 10^3.

What about the “Log Reduction” value [5, 11] of the same molecule?
Its value is 3.15.

And the “Average Log” value [5, 12]?
The value was 5.04.

And the “Average Survivors” value [5, 12]?
Its value is 1.1 × 10^5.

What about the “Log Reduction” value [5, 12] of the same molecule?
Its value is 0.69.

And the “Log Reduction” value [6]?
Its value is 0.85.

And the “Fabric Swatch Log Reduction” value [7]?
The value was 3.01.

And the “Wash Solution Log Reduction” value [7]?
The value was 5.30.

And the Carrier log reduction [1]?
Its Carrier log reduction is 1.78.

What about the “Wash Solution Log Reduction” value [1] of the same molecule?
The value was 4.40.
